{
  "source": "patent US6610686B1",
  "about": "“Use of pirenoxine for the protection of corneal tissues in photokeractomy” (Ausimont S.p.A., priority 1999, dated 2003)",
  "key": {"rabbit corneas": {"tested_on": "rabbit corneas", "experiment": "In vivo effect on rabbit corneas after intrastromal injection of UV irradiated ferritin", "details": "two drops of 0,005% pirenoxine every hour 8 times a day over 4 days, corneas at 5th day", "protocol": "(a) rabbits were anaesthetized by low pentobarbital doses (20 mg/kg); (b) 25 μl of 50 μM ferritin in 0,15 M NaCl were injected in the stroma of the cornea by a 0,33×13 mm/29G insulin syringe whereas the controls were treated with 25 μl physiological solution; (c) in the eyes every hour two drops (1 drop=30 μl) of 0,005% pirenoxine in 0,145 M NaCl 8 times a day over 4 days were instilled, whereas the controls were treated only with the solvent, in the same amount and frequency; (d) at the 5th day the animals were sacrificed using a pentobarbital overdose (100 mg/kg); (e) the corneas were abstracted and the tissue cells separated and collected according to the procedure described in the ex vivo experiment; (f) the conjugated dienes and fluorescent soluble lipid contained in suitable homogenate aliquots were determined.\nIn vivo conjugated diene and lipid soluble fluorescence substance formation in corneas 5 days after the rabbit eyes were submitted to intrastromal injection of UV-irradiated ferritin and topical instillation of pirenoxine solution (2 drops every hour for 8 hr over 4 days)"}, "[1]": {"details": "reconstituted aqueous solution, ambient temperature; cited from earlier work"}, "[2]": {"tested_on": "rabbit corneas incubated with f-MLP-stimulated autologous macrophages", "experiment": "In vitro protection of whole corneas against ROS from f-MLP-stimulated autologous rabbit macrophages", "type": "cell-based", "details": "10^−5 M pirenoxine, 10^−7 M f-MLP stimulated macrophages, two hours at 37° C.", "protocol": "In order to evaluate the inhibition exerted by pirenoxine against the oxidizing activity of macrophage produced ROS at level of the cornea, the following procedure was carried out: (a) broncho-alveolar washing of the rabbit to obtain the macrophages; (b) abstraction of the cornea from the rabbit eye; (c) incubation of the corneas with 10^−7 M f-MLP stimulated or not stimulated macrophages (800000 cells/well) for two hours at 37° C., 5 % CO2 in presence and in absence of 10^−5 M pirenoxine; (d) separation and homogenization of the epithelial and endothelial corneal cells and subsequent determination of fluorescence as described in b, c, d and f steps of the above methodology."}, "[3]": {"tested_on": "epithelium and endothelium homogenates of rabbit corneas", "experiment": "In vitro Fe(III)-ascorbic acid induced lipid peroxidation in epithelium and endothelium homogenates of rabbit corneas", "type": "biochemical", "details": "homogenate + 10 μM FeCl3 and ascorbic acid, 27° C., 30 minutes, 10^−5 M pirenoxine; mean ± SEM", "text": "The experimental procedure for the evaluation of the inhibiting action against the lipid-peroxidation exerted by pirenoxine in cornea epithelial and endothelial cells made use of Fe(III)-ascorbic acid system to induce the peroxidative phenomenon. The oxidative attack on membrane lipids was confirmed by the spectrophotometric determinations of both the conjugated dienes and fluorescent lipid-soluble substances which, as known, are generated by the oxidative degradation of lipid molecules.\nUsed experimental procedure included the following steps: a) abstraction of the cornea from the eye of male pigmented rabbits suitably selected and prepared for the study; b) incubation of the latter in 100 μM phosphate buffer, pH 7,5, in the presence of 1000 U collagenase and 5 μM CaCl2 for 20 hours at 37° C.; c) centrifugation at 35000 rpm at 0° C. for 10 minutes and washings of the sediment with phosphate buffer; d) homogenization of the cellular sediment in 1 ml of buffer, pH 7,4 (10% w/v); e) incubation of a suitable homogenate aliquot with 10 μM FeCl3 and ascorbic acid in phosphate buffer, pH 7,4, at 27° C. for 30 minutes in presence and in absence of 10^−5 M pirenoxine; f) extraction of the lipid-soluble substances using chloroform/methanol mixture (2:1 v/v). […]"}, "[4]": {"tested_on": "epithelial corneal cells (SIRC)", "experiment": "In vitro protection of UV312 irradiated epithelial corneal cells (SIRC)", "type": "cell-based", "details": "for Lipid-soluble fluorescent substances, U/mg protein / Lipid-soluble fluorescent substances, U/well: UV312 80 mJ/cm^2, 10^−5 pirenoxine, 17 hours at 37° C.", "protocol": "The protective effect of pirenoxine on epithelial comeal cells (SIRC) irradiated for 36″ using UV312 light (80 mJ/cm^2), according to the following procedure: (a) the comeal cells were plated in 35 mm diameter wells; (b) at 80% confluency the cells were contacted with a medium at low (0,2%) serum content to inhibit the proliferation thereof during the experiment (c) the cells were irradiated with UV light in presence and in absence of 10^−5 pirenoxine, incubated at 37° C. for 17 hours and homogenized in 10 mM f) phosphate buffer, pH 7,4; (d) the lipid-soluble fluorescent substances and the proteins contained in suitable homogenate aliquots were determined."}},
  "data": [
    {"smiles": "O=C(O)c1cc(O)c2c3nc4ccccc4oc-3cc(=O)c2n1", "note": "[pirenoxine, 1-hydroxy-5-oxo-5H-pyrido-[3,2a]-phenoxazin-3-carboxylic acid]", "values": [
      {"measurement": "Conjugated diene", "setting": "rabbit corneas", "value": 1.7, "unit": "Nmoles/hemicornea"},
      {"measurement": "Fluorescence", "setting": "rabbit corneas", "value": 4.4, "unit": "Unit/hemicornea"},
      {"measurement": "Storage time of reconstituted solution without degradation", "setting": "[1]", "value": "about two weeks without degradation"},
      {"measurement": "Induced fluorescence of lipid soluble substances (FIG. 1)", "setting": "[2]", "value": "remarkably lower than the controls and are comparable to those of normal corneas (basal values)"},
      {"measurement": "Conjugated dienes", "setting": "[3]", "value": "2.77 ± 0.07", "unit": "nmol/hemicornea"},
      {"measurement": "Fluorescence (fluorescent lipid-soluble substances)", "setting": "[3]", "value": "5.22 ± 0.13", "unit": "U/hemicornea"},
      {"measurement": "Lipid-soluble fluorescent substances, U/mg protein", "setting": "[4]; Cells 14/01", "value": 2.76, "unit": "U/mg protein"},
      {"measurement": "Lipid-soluble fluorescent substances, U/well", "setting": "[4]; Cells 14/01", "value": 0.92, "unit": "U/well"},
      {"measurement": "Lipid-soluble fluorescent substances, U/mg protein", "setting": "[4]; Cells 17/12", "value": 9.08, "unit": "U/mg protein"},
      {"measurement": "Lipid-soluble fluorescent substances, U/well", "setting": "[4]; Cells 17/12", "value": 3.66, "unit": "U/well"},
      {"measurement": "Lipid-soluble fluorescent substances, U/mg protein", "setting": "[4]; Cells 20/12", "value": 7.35, "unit": "U/mg protein"},
      {"measurement": "Lipid-soluble fluorescent substances, U/well", "setting": "[4]; Cells 20/12", "value": 1.8, "unit": "U/well"},
      {"measurement": "Lipid-soluble fluorescent substances relative to irradiated cells not protected by pirenoxine", "setting": "[4]; UV312 irradiation, 10^−5 pirenoxine", "value": "notably lower (about two and half times)"}
    ]}
  ]
}
